Measured values: patent US20190382850A1, “METHOD FOR IDENTIFYING MITOCHONDRIAL DNA IN EXTRACELLULAR VESICLES AND TREATMENT OF MTDNA-RELATED DISORDERS AND CANCER” (Memorial Sloan-Kettering Cancer Center, priority 2017, published 2019)

Key:
Format in all cases: cell-based, human
HTR tumor-derived cells = experiment: OXPHOS potential (Seahorse) in FACS sorted tumor-derived cancer cells ± HT; settings: fulvestrant 10 μM, FIG. 2b
From the text: (§1) (Panel a) Representative tumor growth kinetics (BLI) of GFP+/Luciferase+MCF7 xenografts (n=10) treated with weekly fulvestrant once mammary fat pad tumors were established (after 3 months) which led to a period (4 months) of disease stability on HT (HTS) followed by exponential growth on HT (HTR). Representative H&E images of tumors and primary cultures from unsorted as well as FACS purified cancer cells (GFP+/Epcam+) and murine CAFs (GFP−/Epcam). Scale bar 20 μm. (Panel b) OXPHOS potential in tumor-derived cancer cells (panel a) was measured±HT (fulvestrant, 10 μM) by Seahorse. […] (Panel d) Percentage of metastatic lesions isolated by FACS from tumor-bearing mice (n=8/group) expressing murine mtDNA as determined by ND1 qPCR (2 ng of total DNA). Oxygen consumption rates (OCR) in murine-mtDNApos and ctrl HTR cells determined by Seahorse. (Panel e) Murine mitochondrial RNA expression (12 genes: ND1, ND2, COX2, ATP8, ATP6, COX3, ND3, ND4L, ND4, ND5, ND6, CytB) as fold change (logioscale) determined by qRT-PCR in HTR and HTS cells (panel a). […]
(§2) Mitochondrial respiration and OXPHOS potential in cells was assessed using Seahorse technology (www.seahorsebio.com)(Qian, W. & Van Houten, B. Alterations in bioenergetics due to changes in mitochondrial DNA copy number. Methods 51, 452-457 (2010)). […]

HTS cells = experiment: as above; settings: fulvestrant 10 μM, FIG. 2b
From the text: as §1, §2

[1] = tested on: luminal breast cancer cells and xenograft derived cells; experiment: mtDNA level (qPCR copy number) in HT-induced dormant cells; settings: fulvestrant 10 μM for 2 months; several models of HT-induced dormancy; FIG. 5b
Method: (Panel b) mtDNA level (qPCR as fold change, naïve cells was used as reference) in luminal breast cancer cells and xenograft derived cells (multiple models)±HT (fulvestrant, 10 μM for 2 months). (Panel c) Dormant MCF7 cells (HTD) were isolated and treated with 3×10^9 mCAF-derived EVs (wt-mtDNA^hi or ρ0-mtDNA^lo) weekly ×4+HT (fulvestrant, 10 μM/weekly). After 40 days, mammosphere (MS) number and mitochondrial membrane potential (Δψ) by TMRE staining (red) in HTR/mito^hi EV and HTD/mito^lo EV educated cells was determined; scale bar 15 μm. […] (Panel f) Murine mitochondrial RNA expression (14 genes, as fold change -log10scale-) by qRT-PCR in HTR and HTS cells (panel e) (reference HTDorm cells; MCF7); the expression of nuclear encoded murine (non-mitochondrial RNA) transcripts was also determined (Cox4, β2M). […]
Generation of HTD cells was performed by treating ER+(GFP+) breast cancer cell lines (MCF7, ZR751, BT474) with HT (fulvestrant, 10 μM) for 2 months. […] Viable cell number was subsequently determined using trypan blue exclusion and cell counting using bright field microscopy HTD cells were then cultured in vitro or injected in vivo for further studies. […] Proliferation was determined by Cal cein AM technique (InVitrogen). […] After 40 days, mammosphere number (bright field microscopy) was determined after 40 days. […] Tumor growth was determined by BLI and after necropsy. […]

## C[C@]12CC[C@@H]3c4ccc(O)cc4C[C@@H](CCCCCCCCC[S+]([O-])CCCC(F)(F)C(F)(F)F)[C@H]3[C@@H]1CC[C@@H]2O (stereo partly drawn) [fulvestrant]
HTR tumor-derived cells
  OXPHOS capacity of HTR tumor-derived cells: unaffected
HTS cells
  OXPHOS potential of HTS cells: inhibited
[1]
  reduction of mtDNA level (copy number) vs control: 70-90%
